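Interpolation was linear, between the two tested concentrations surrounding the appropriate level; five concentrations were tested over 48 hours in 96-well plates. GI50 = concentration required for 50% inhibition of growth.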 The source made the active and inactive calls. Rule as the data show it: active = GI50 up to about 1.1 µM and inactive = higher.
Columns and labels:
Assay in all cases: NCI tumour cell line growth inhibition, 48 h
HOP-62 = system: HOP-62
HOP-92 = system: HOP-92
RXF 393 = system: RXF 393
TK-10 = system: TK-10
SK-MEL-5 = system: SK-MEL-5
EKVX = system: EKVX
SF-539 = system: SF-539
SK-OV-3 = system: SK-OV-3
NCI/ADR-RES = system: NCI/ADR-RES
HCC 2998 = system: HCC 2998
HCT-116 = system: HCT-116
KM12 = system: KM12
SN12C = system: SN12C
PC-3 = system: PC-3
SK-MEL-28 = system: SK-MEL-28
Hs-578T = system: Hs-578T
MCF7 = system: MCF7
NCI-H23 = system: NCI-H23
UACC-62 = system: UACC-62
SNB-19 = system: SNB-19

Measured: GI50

CCOC(=O)/C=C(/C(=O)OCC)n1cc(C)c(=O)n(/C(=C/C(=O)OCC)C(=O)OCC)c1=O
inactive: HOP-62 24.8 µM | HOP-92 1.52 µM | RXF 393 1.8 µM | TK-10 2.08 µM | SK-MEL-5 7.31 µM | EKVX 3.06 µM | SF-539 8.85 µM | SK-OV-3 17.5 µM | NCI/ADR-RES 8.36 µM | HCC 2998 9.48 µM | HCT-116 1.91 µM | KM12 13.9 µM | SN12C 2.98 µM | PC-3 5.22 µM | SK-MEL-28 2.19 µM | Hs-578T 6.4 µM | MCF7 1.91 µM | NCI-H23 4.03 µM | UACC-62 5.97 µM | SNB-19 19.8 µM

COC(=O)c1cc2c(cc1Cl)Sc1nnc(Nc3ccc(C)cc3)n1S2(=O)=O
inactive: HOP-62 8.89 µM | HOP-92 3.66 µM | RXF 393 3.94 µM | TK-10 14.3 µM | SK-MEL-5 13.8 µM | EKVX 12.9 µM | SF-539 1.17 µM | SK-OV-3 11.9 µM | NCI/ADR-RES 11.1 µM | HCC 2998 4.75 µM | HCT-116 8.93 µM | KM12 5.57 µM | SN12C 18.1 µM | PC-3 4.85 µM | SK-MEL-28 9.33 µM | Hs-578T 4.9 µM | MCF7 3.72 µM | NCI-H23 3.61 µM | UACC-62 12.3 µM | SNB-19 5.81 µM
